Assay results as given in patent US11008317B2, “Triazolopyridine inhibitors of myeloperoxidase and/or EPX” (priority 2016, dated 2021).
Where a name gives a salt, the structure may show the parent alone.

Legend:
myeloperoxidase [1] = target: T1, myeloperoxidase (Homo sapiens, UniProt P05164); assay: MPO Chlorination Assay (APF Assay); assay type: biochemical; settings: potency range class
T1 sequence (P05164 49-745): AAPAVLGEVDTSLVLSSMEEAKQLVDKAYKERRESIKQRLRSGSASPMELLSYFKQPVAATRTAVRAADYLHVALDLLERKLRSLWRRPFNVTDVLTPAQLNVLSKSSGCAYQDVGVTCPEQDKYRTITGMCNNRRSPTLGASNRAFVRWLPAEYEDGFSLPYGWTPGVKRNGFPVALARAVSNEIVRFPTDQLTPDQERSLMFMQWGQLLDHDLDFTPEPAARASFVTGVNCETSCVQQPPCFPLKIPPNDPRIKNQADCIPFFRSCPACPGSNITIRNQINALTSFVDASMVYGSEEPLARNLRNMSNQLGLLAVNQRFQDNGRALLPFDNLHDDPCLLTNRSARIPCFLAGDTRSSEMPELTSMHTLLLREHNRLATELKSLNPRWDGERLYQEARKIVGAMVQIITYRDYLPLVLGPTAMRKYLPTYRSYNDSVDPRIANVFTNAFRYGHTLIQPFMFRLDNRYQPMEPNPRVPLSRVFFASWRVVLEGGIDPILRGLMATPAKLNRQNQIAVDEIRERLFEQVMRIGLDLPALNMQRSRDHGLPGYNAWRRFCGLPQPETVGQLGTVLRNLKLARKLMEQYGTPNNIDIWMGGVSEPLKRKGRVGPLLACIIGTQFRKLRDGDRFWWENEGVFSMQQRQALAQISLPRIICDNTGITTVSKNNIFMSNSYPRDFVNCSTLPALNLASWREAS

myeloperoxidase [2] = target: T1, myeloperoxidase; assay: MPO Peroxidation Assay (Amplex Red Assay); assay type: biochemical; settings: potency range class
[3] = read-out: Amplex Red Assay IC50 value

Row | Compound | IC50 (myeloperoxidase [1]; read-out: APF Assay IC50 value) [µM] | IC50 (myeloperoxidase [2]; [3]) [µM] | IC50 (myeloperoxidase [1]; APF Assay IC50 value (μM)) [µM] | IC50 (myeloperoxidase [2]; Amplex Red Assay IC50 value (μM)) [µM]
1 | Nc1cc([C@H](CCCN2CCC3(CC2)NC(=O)Cc2ccccc23)c2ccccc2)c2nn[nH]c2n1 [Example 217, 1′-[(4R)-4-{5-amino-3H-[1,2,3]triazolo [4,5-b]pyridin-7-yl}-4-phenylbutyl]-3,4-dihydro-2H-spiro[isoquinoline-1,4′-piperidine]-3-one] | 0.101 to 0.999 | 0.101 to 0.999 |  | 
2 | Nc1cc([C@H](CCCN2CCC(c3ccc4ccccc4c3)CC2)c2ccccc2)c2nn[nH]c2n1 [Example 218, 7-[(1R)-4-[4-(naphthalen-2-yl)piperidin-1-yl]-1-phenylbutyl]-3H-[1,2,3]triazolo[4,5-b] pyridin-5-amine] | 0.001 to 0.1 | 0.101 to 0.999 |  | 
3 | Nc1cc([C@H](CCCN2CC[C@H]3C[C@@H]2Cc2ccccc23)c2ccccc2)c2nn[nH]c2n1 [Example 219, 7-((R)-1-phenyl-4-((2R,6S)-1,4,5,6-tetrahydro-2,6-methanobenzo[d]azocin-3(2H)-yl)butyl)-3H-[1,2,3] triazolo[4,5-b] pyridin-5-amine] |  |  | 0.001 to 0.1 | 0.101 to 0.999
4 | Nc1cc([C@H](CCCN2CCC3(CC2)NC(=O)Nc2ccccc23)c2ccccc2)c2nn[nH]c2n1 [Example 222, 1-[(4R)-4-{5-amino-3H-[1,2,3]triazolo [4,5-b]pyridin-7-yl}-4-phenylbutyl]-2′,3′-dihydro-1′H-spiro [piperidine-4,4′-quinazoline]-2′-one] | 0.001 to 0.1 | 1 to 10 |  | 
5 | Nc1cc(C(CCO[C@H]2CC[C@H](c3ccccc3)CC2)c2ccccc2)c2nn[nH]c2n1 (some centres unmarked) [Example 223, 7-(1-phenyl-3-((4-phenylcyclohexyl)oxy)propyl)-3H-[1,2,3]triazolo[4,5-b]pyridin-5-amine] | 0.101 to 0.999 | 0.101 to 0.999 |  | 
6 | Nc1cc(C(CC(O)CCc2ccccc2)c2ccccc2)c2nn[nH]c2n1 (centres unmarked) [Example 225, 1-(5-amino-3H-[1,2,3]triazolo[4,5-b]pyridin-7-yl)-1,5-diphenylpentan-3-ol, TFA] | 0.101 to 0.999 | 0.101 to 0.999 |  | 
7 | Nc1cc(C(CNCCc2ccccc2)c2ccccc2)c2nn[nH]c2n1 (centres unmarked) [Example 228, 7-{1-phenyl-2-[(2-phenylethyl)amino]ethyl}-3H-[1,2,3]triazolo[4,5-b]pyridin-5-amine] | 1 to 10 | 1 to 10 |  | 
8 | Nc1cc(C(Cc2ccc(O)cc2)c2ccccc2)c2nn[nH]c2n1 (centres unmarked) [Example 229, 4-(2-(5-amino-3H-[1,2,3]triazolo[4,5-b]pyridin-7-yl)-2-phenylethyl)phenol] | 0.101 to 0.999 | 0.001 to 0.1 |  | 
9 | Nc1cc(C(Cc2cccc(O)c2)c2ccccc2)c2nn[nH]c2n1 (centres unmarked) [Example 230, 3-(2-(5-amino-3H-[1,2,3]triazolo[4,5-b]pyridin-7-yl)-2-phenylethyl)phenol] | 1 to 10 | 0.001 to 0.1 |  | 
10 | Nc1cc(C(CCC(O)Cc2ccccc2)c2ccccc2)c2nn[nH]c2n1 (centres unmarked) [Example 234, 5-(5-amino-3H-[1,2,3]triazolo[4,5-b]pyridin-7-yl)-1,5-diphenylpentan-2-ol] | 0.101 to 0.999 | 0.101 to 0.999 |  | 
11 | Nc1cc(C(CCN[C@@H](CO)CCCc2ccccc2)c2ccccc2)c2nn[nH]c2n1 (stereo partly drawn) [Example 236, (R)-2-((3-(5-amino-3H-[1,2,3]triazolo[4,5-b]pyridin-7-yl)-3-phenylpropyl)amino)-5-phenylpentan-1-ol] | 0.001 to 0.1 | 1 to 10 |  | 
12 | Nc1cc([C@H](Cc2nc3cccc(-c4ccccc4)c3[nH]2)c2ccccc2)c2nn[nH]c2n1 [Example 238, (R)-7-(1-phenyl-2-(7-phenyl-1H-benzo[d]imidazol-2-yl)ethyl)-3H-[1,2,3]triazolo[4,5-b]pyridin-5-amine] | 0.001 to 0.1 | 0.101 to 0.999 |  | 
13 | Nc1cc([C@H](Cc2nc3ccc(-c4ccccc4)cc3c(=O)[nH]2)c2ccccc2)c2nn[nH]c2n1 [Example 241] | 0.001 to 0.1 | 0.101 to 0.999 |  | 
14 | NC(=O)c1cccc(-c2cccc3[nH]c(C[C@H](c4ccccc4)c4cc(N)nc5[nH]nnc45)nc23)c1 [Example 245, (R)-3-(2-(2-(5-amino-3H-[1,2,3]triazolo [4,5-b]pyridin-7-yl)-2-phenylethyl)-1H-benzo[d]imidazol-4-yl)benzamide] | 0.001 to 0.1 | 0.101 to 0.999 |  | 

Continued, in another order:

Row | IC50 (myeloperoxidase [1]; read-out: APF Assay IC50 value) [µM] | IC50 (myeloperoxidase [2]; [3]) [µM] | Compound | IC50 (myeloperoxidase [1]; APF Assay IC50 value (μM)) [µM] | IC50 (myeloperoxidase [2]; Amplex Red Assay IC50 value (μM)) [µM]
15 | 0.101 to 0.999 | 0.101 to 0.999 | Nc1cc([C@H](CCCN2CCC(c3cccc(C(F)(F)F)c3)C(O)C2)c2ccccc2)c2nn[nH]c2n1 (stereo partly drawn) [Example 220, 1-[(4R)-4-{5-amino-3H-[1,2,3]triazolo [4,5-b]pyridin-7-yl}-4-phenylbutyl]-4-[3-(trifluoromethyl)phenyl]piperidin-3-ol] |  | 
16 | 0.101 to 0.999 | 0.101 to 0.999 | Nc1cc([C@H](CCCN2CCC(Cc3ccccc3)C2)c2ccccc2)c2nn[nH]c2n1 (stereo partly drawn) [Example 221, 7-[(1R)-4-(3-benzylpyrrolidin-1-yl)-1-phenylbutyl]-3H-[1,2,3]triazolo[4,5-b]pyridin-5-amine] |  | 
17 | 0.101 to 0.999 | 0.101 to 0.999 | Nc1cc(C(CNCC(F)(F)c2ccccc2)c2ccccc2)c2nn[nH]c2n1 (centres unmarked) [Example 226, 7-(2-((2,2-difluoro-2-phenylethyl)amino)-1-phenylethyl)-3H-[1,2,3]triazolo[4,5-b]pyridin-5-amine] |  | 
18 | 0.101 to 0.999 | 0.001 to 0.1 | Nc1cc(C(CCC(=O)Cc2ccccc2)c2ccccc2)c2nn[nH]c2n1 (centres unmarked) [Example 233, 5-(5-amino-3H-[1,2,3]triazolo[4,5-b]pyridin-7-yl)-1,5-diphenylpentan-2-one] |  | 
19 | 0.101 to 0.999 | 0.101 to 0.999 | Nc1cc(C(CCC(N)Cc2ccccc2)c2ccccc2)c2nn[nH]c2n1 (centres unmarked) [Example 235, 7-(4-amino-1,5-diphenylpentyl)-3H-[1,2,3]triazolo[4,5-b]pyridin-5-amine] |  | 
20 | 0.101 to 0.999 | 0.101 to 0.999 | Nc1cc([C@H](CCO)c2ccccc2)c2nn[nH]c2n1 [Example 237, (R)-3-(5-amino-3H-[1,2,3]triazolo[4,5-b]pyridin-7-yl)-3-phenylpropan-1-ol] |  | 
21 | 0.101 to 0.999 | 0.001 to 0.1 | Nc1cc([C@H](Cc2nc3ccccc3s2)c2ccccc2)c2nn[nH]c2n1 [Example 239, (R)-7-(2-(benzo[d]thiazol-2-yl)-1-phenylethyl)-3H-[1,2,3]triazolo[4,5-b]pyridin-5-amine] |  | 
22 | 0.101 to 0.999 | 0.101 to 0.999 | Nc1cc([C@H](Cc2nc3ccccc3o2)c2ccccc2)c2nn[nH]c2n1 [Example 240, (R)-7-(2-(benzo[d]oxazol-2-yl)-1-phenylethyl)-3H-[1,2,3]triazolo[4,5-b]pyridin-5-amine] |  | 
23 | 0.001 to 0.1 | 0.001 to 0.1 | Nc1cc([C@H](Cc2nc3ccc(-c4ccccc4)cc3s2)c2ccccc2)c2nn[nH]c2n1 [Example 242, (R)-7-(1-phenyl-2-(6-phenylbenzo[d]thiazol-2-yl)ethyl)-3H-[1,2,3]triazolo [4,5-b]pyridin-5-amine] |  | 
24 | 0.001 to 0.1 | 0.101 to 0.999 | CN(C)C(=O)c1cccc(-c2cccc3[nH]c(C[C@H](c4ccccc4)c4cc(N)nc5[nH]nnc45)nc23)c1 [Example 243, (R)-3-(2-(2-(5-amino-3H-[1,2,3]triazolo [4,5-b]pyridin-7-yl)-2-phenylethyl)-1H-benzo[d]imidazol-4-yl)-N,N-dimethylbenzamide] |  | 
25 | 0.001 to 0.1 | 0.101 to 0.999 | Nc1cc([C@H](Cc2nc3c(-c4ccccc4)cc(Cl)cc3[nH]2)c2ccccc2)c2nn[nH]c2n1 [Example 244, (R)-7-(2-(6-chloro-4-phenyl-1H-benzo[d]imidazol-2-yl)-1-phenylethyl)-3H-[1,2,3]triazolo[4,5-b]pyridin-5-amine] |  | 
